Reference: patent US20080064034A1, “Multi-Cellular Test Systems” (FRAUNHOFER-GESELLSCHAFT ZUR FÖRDERUNG DER ANGEWAND, priority 2004, published 2008)

Test system: organoid bodies
Experiment: Western blot of the liver protein α-fetoprotein in homogenates of organoid bodies incubated with HGF
Type: cell-based
Details: 40 ng/ml HGF
Procedure: In this example organoid bodies were exposed for a time period of 1 to 2 days to different micromolar concentrations of puromycin, an active substance that inhibits translation. Then, the size of the treated organoid bodies was compared with those of an untreated control (see comparative micrograph in FIG. 5A). In a second detection method the organoids were taken up in 10 ml lysis buffer containing 7.5 ml PBS, 2.5 ml NP-40 and 1 mM PEFA block, stored overnight in a refrigerator at 4° C. and then homogenized in minihomogenizers for Eppendorf tubes. The homogenate was centrifuged, the supernatant removed and resolved electrophoretically according to standard methods and the gel subjected to a Western immunoblot. […] The first four bands are produced by the different active amounts of puromycin, the last two show the amount of vigilin in the untreated organoids; the same amount of total protein was always applied per track.
The organoid bodies were incubated with 40 ng/ml HGF (hepatocyte growth factor) or without HFG for 7, 11 14 and 17 days. Then, the organoid bodies were homogenized as described in example 7 and subjected to a Western blot assay. The production of the liver protein α-fetoprotein was examined (FIG. 7).

HGF: hepatocyte growth factor, a differentiation factor for increased formation of cardiac and liver cells
production of the liver protein α-fetoprotein (after 7 and 11 days of incubation): distinct synthesis of the fetoprotein can be observed
production of the liver protein α-fetoprotein (longer exposure time (14 and 17 days)): tends to inhibit the production again
